pIC50: −log10 of the molar value. One block for each molecule: values may come before it.
Key:
[1] = tested on: Human TLR7/8; experiment: Human PBMC cell-based assay, TLR7/8 stimulus (RNA-Ig), cytokine ELISA; details: primary human PBMC assay, TLR7/8 potency; ligand not given; read-out: Human PBMCs IC50
Procedure: Human PBMC Cell-Based Assay. Human peripheral blood mononuclear cells (PBMC) were isolated from freshly-drawn heparinized (10 USP units/ml, Hospira, Lakeforest, Ill.) healthy donor whole blood by density gradient (Histopaque® 1077, Sigma, Inc., St. Louis, Mo.). Briefly, 25 ml blood was diluted with 15 ml PBS (without Ca^2+, Mg^2+) in a 50 ml conical tube, and 12 ml Histopaque was underlaid using a spinal needle. Tubes were centrifuged for 45 minutes at 1200 rpm (350×g), and PBMC were collected from the buffy coat. Cells were then washed twice in PBS, and red blood cells were lysed by suspension in 5 ml ammonium chloride solution (1× Red Blood Cell Lysis Buffer, eBioscience) for 5 minutes at room temperature. After a final wash in PBS, PBMC were resuspended at a final concentration of 2×10^6/ml in RPMI-1640 media with L-glutamine (Invitrogen) and supplemented with 25 mM HEPES (Mediatech, Inc, Manassas Va.), 10% fetal bovine serum (HyClone, Logan, Utah), and Penicillin-Streptomycin-Glutamine (Mediatech) and plated at 100 ul/well (2×10^5 cells/well) in tissue culture treated 96-well plates (Falcon).
Antagonist compounds solubilized and serial diluted in 100% DMSO were added in triplicate to cells to yield a final concentration of 0.1% DMSO (v/v). Hydroxychloroquine (Acros Organics) solubilized and serial diluted in PBS was added in triplicate to cells. PBMC were incubated with antagonist compounds or HCQ for 30 minutes at 37° C., 5% CO2 before adding various TLR agonist reagents in 100 ul complete media per well as follows (final concentrations indicated): R848 (Resiquimod; GLSynthesis, Worcester, Mass.) at 1 uM for TLR7 and TLR8, LPS (Sigma) at 10 ng/ml for TLR4, and CpG-2216 (InvivoGen) at 5 ug/ml for TLR9. To prepare a TLR7/8 agonist that mimics RNA-containing auto-antibody immune complexes in lupus patients, a 26-mer RNA with a sequence derived from human U1 snRNA stem loop IV [(sequence: […]-[…] (SEQ ID NO: 2) with phosphorothioate backbone] was synthesized (Dharmacon, Inc., Lafayette, Colo.), which has been shown previously to be a potent TLR7 and TLR8 agonist. This RNA molecule was diluted to 2.5 μM in serum-free RPMI, and mouse anti-human single stranded DNA monoclonal antibody (MAB3034, Millipore, Inc., Billerica, Mass.), which also cross-reacts with RNA, was added at a 1:25 dilution or at 1 ug/ml. The resulting “RNA-Ig” stimulus was incubated at room temperature for 15-30 minutes before adding to cells. PBMC were incubated with the various TLR agonists for 20 hours at 37° C., 5% CO2. Cell culture supernatants were collected, and levels of various human cytokines were assessed as indicated by standard ELISA procedure according to the manufacturer's recommended protocol (BD Biosciences, Inc., San Diego, Calif.). In a subsequent assay (Table 6) the ability of ER-899742 to block stimulation of normal PBMC by various TLR7/8 ligands, but not DNA-mediated activation of TLR9, was examined. In this assay cells were plated at 1×10^5 cells/well in 100 ul in 96-well plates.

[2] = biological target: T1, mouse TLR7 (Mus musculus, UniProt P58681); experiment: Short-term in vivo (STIV) assay: oral dosing, R848 s.c., plasma IL-6; set-up: female BALB/c mice (Jackson Labs, Bar Harbor, Me.) were dosed by oral gavage; tissue Jackson Labs; host or cells: living female BALB/c mice; plasma IL-6 after s.c. R848
T1 sequence (P58681 27-1050): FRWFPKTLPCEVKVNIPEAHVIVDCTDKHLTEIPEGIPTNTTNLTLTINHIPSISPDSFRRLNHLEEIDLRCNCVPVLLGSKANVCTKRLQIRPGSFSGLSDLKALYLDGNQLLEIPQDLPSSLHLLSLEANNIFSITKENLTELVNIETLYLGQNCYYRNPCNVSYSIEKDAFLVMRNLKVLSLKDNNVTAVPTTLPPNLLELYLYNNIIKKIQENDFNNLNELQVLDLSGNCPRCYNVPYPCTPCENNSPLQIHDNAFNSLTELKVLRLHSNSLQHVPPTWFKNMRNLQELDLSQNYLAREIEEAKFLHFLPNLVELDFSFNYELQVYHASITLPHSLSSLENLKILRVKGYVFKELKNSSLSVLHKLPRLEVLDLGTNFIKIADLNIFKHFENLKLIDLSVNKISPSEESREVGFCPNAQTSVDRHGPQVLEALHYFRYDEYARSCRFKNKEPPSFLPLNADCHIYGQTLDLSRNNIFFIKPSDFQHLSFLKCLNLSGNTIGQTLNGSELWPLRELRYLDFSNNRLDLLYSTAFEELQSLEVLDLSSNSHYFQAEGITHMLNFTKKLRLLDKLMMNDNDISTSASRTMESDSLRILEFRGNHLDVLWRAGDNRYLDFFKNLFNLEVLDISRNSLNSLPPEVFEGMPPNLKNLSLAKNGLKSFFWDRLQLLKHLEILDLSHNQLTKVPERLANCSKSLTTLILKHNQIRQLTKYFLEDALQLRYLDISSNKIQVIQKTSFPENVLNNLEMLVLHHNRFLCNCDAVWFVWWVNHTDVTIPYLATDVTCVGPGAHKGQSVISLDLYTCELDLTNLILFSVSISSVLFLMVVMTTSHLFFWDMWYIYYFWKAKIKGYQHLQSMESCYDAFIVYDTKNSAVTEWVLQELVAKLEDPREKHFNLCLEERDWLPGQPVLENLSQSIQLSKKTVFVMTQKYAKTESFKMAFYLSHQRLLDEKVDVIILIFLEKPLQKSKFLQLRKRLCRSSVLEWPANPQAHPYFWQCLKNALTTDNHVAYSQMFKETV
Procedure: Figure Legend: Female BALB/c mice were dosed by oral gavage with Vehicle alone (0.5% aqueous methyl-cellulose) or compound formulated in Vehicle at 33 mg/kg, 100 mg/kg or 300 mg/kg. […] (FIG. 1A).
Short-term in vivo (STIV) assay: To assess compound potency in vivo against mouse TLR7, a short-term in vivo (STIV) assay was utilized. Briefly, mice were orally dosed with compounds and at various time points afterwards were injected subcutaneously with agonist R848 to stimulate TLR7. The plasma IL-6 level following R848 stimulation was then measured by ELISA to assess compound potency and duration-of-action.
Short-term in vivo (STIV) assay. Six to eight week old female BALB/c mice (Jackson Labs, Bar Harbor, Me.) were dosed by oral gavage in 200 ul volume with antagonist compounds formulated in 0.5% aqueous methyl-cellulose (Sigma, St. Louis, Mo.). At various time points afterwards, mice were injected subcutaneously (s.c.) in 100 ul volume with 15 ug R848 (Resiquimod; GLSynthesis, Worcester, Mass.) to stimulate TLR7.

Structure (SMILES): CC1CN(c2ccc(C#N)c3ncccc23)CC(CN2CCCC2CO)O1 (stereo not drawn) [ER-886866]
pIC50 [1]: 7.30

Structure (SMILES): CC1CN(c2ccc(C#N)c3ncccc23)CC(CN2CCCCC2C)O1 (stereo not drawn) [ER-886957]
pIC50 [1]: 7.77

Structure (SMILES): CC1CN(c2ccc(C#N)c3ncccc23)CC(CNc2ncccn2)O1 (stereo not drawn) [ER-886787]
pIC50 [1]: 7.12

Structure (SMILES): C[C@@H]1CN(c2ccc(C#N)c3ncccc23)C[C@H](CN)O1 [ER-884884]
pIC50 [1]: 6.69

Structure (SMILES): C[C@@H]1CN(c2ccc(C#N)c3ncccc23)C[C@H](C(=O)Nc2n[nH]cc2C#N)O1 [ER-899295]
pIC50 [1]: 7.49

Structure (SMILES): CC1CN(c2ccc(C#N)c3ncccc23)CC(C(=O)NC2CCCNC2)O1 (stereo not drawn) [ER-897967]
pIC50 [1]: 7.89

pIC50 [1]: 6.65
Structure (SMILES): CC1CN(c2ccc(C#N)c3ncccc23)CC(CN2CCN(c3ccncc3)CC2)O1 (stereo not drawn) [ER-888286]

Structure (SMILES): CC1CN(c2ccc(C#N)c3ncccc23)CC(C(=O)NC2CCNC2)O1 (stereo not drawn) [ER-897965]
pIC50 [1]: 8.00

Structure (SMILES): C[C@@H]1CN(c2ccc(C#N)c3ncccc23)C[C@H](CNC2CCCCC2)O1 [ER-886611]
% Suppression vs. Vehicle ([2]; 3 h, 33 mg/kg): 90%
% Suppression vs. Vehicle ([2]; 3 h, 100 mg/kg): 100%
% Suppression vs. Vehicle ([2]; 3 h after oral dose, 11 mg/kg): 53%
% Suppression vs. Vehicle ([2]; 6 h, 11 mg/kg): 0%
% Suppression vs. Vehicle ([2]; 6 h, 33 mg/kg): 90%
% Suppression vs. Vehicle ([2]; 6 h, 100 mg/kg): 100%
% Suppression vs. Vehicle ([2]; 19 h, 11 mg/kg): 19%
% Suppression vs. Vehicle ([2]; 19 h, 33 mg/kg): 0%
% Suppression vs. Vehicle ([2]; 19 h, 100 mg/kg): 100%

% Suppression vs. Vehicle ([2]; 3 h, 33 mg/kg): 93%
% Suppression vs. Vehicle ([2]; 3 h, 100 mg/kg): 99%
% Suppression vs. Vehicle ([2]; 6 h, 33 mg/kg): 82%
% Suppression vs. Vehicle ([2]; 6 h, 100 mg/kg): 99%
% Suppression vs. Vehicle ([2]; 19 h, 100 mg/kg): 88%
Structure (SMILES): C[C@@H]1CN(c2ccc(C#N)c3ncccc23)C[C@H](CN2CCC(N3CCN(C)CC3)CC2)O1 [ER-890223]

Structure (SMILES): C[C@@H]1CN(c2ccc(C#N)c3ncccc23)C[C@H](C(=O)NC2(C)CCNCC2)O1 [ER-899718]
% Suppression vs. Vehicle ([2]; 6 h, 100 mg/kg): 74%
% Suppression vs. Vehicle ([2]; 13 h, 100 mg/kg): 51%

Structure (SMILES): C[C@@H]1CN(c2ccc(C#N)c3ncccc23)C[C@H](C(=O)NC2(C)CCN(C)CC2)O1 [ER-899835]
% Suppression vs. Vehicle ([2]; 6 h, 100 mg/kg): 99%
% Suppression vs. Vehicle ([2]; 13 h, 100 mg/kg): 79%

Structure (SMILES): CC(C)C(=O)NC1CN(C[C@H]2CN(c3ccc(C#N)c4ncccc34)C[C@@H](C)O2)C1 [ER-894206]
% Suppression vs. Vehicle ([2]; 3 h, 33 mg/kg): 96%
% Suppression vs. Vehicle ([2]; 6 h, 33 mg/kg): 85%
% Suppression vs. Vehicle ([2]; 6 h, 100 mg/kg): 98%
% Suppression vs. Vehicle ([2]; 13 h, 33 mg/kg): 42%
% Suppression vs. Vehicle ([2]; 13 h, 100 mg/kg): 77%

Structure (SMILES): C[C@@H]1CN(c2ccc(C#N)c3ncccc23)C[C@H](CN2CCC(C(N)=O)CC2)O1 [ER-888320]
% Suppression vs. Vehicle ([2]; 3 h, 100 mg/kg): 100%
% Suppression vs. Vehicle ([2]; 6 h, 33 mg/kg): 78%
% Suppression vs. Vehicle ([2]; 6 h, 100 mg/kg): 94%
% Suppression vs. Vehicle ([2]; 13 h, 33 mg/kg): 9%
% Suppression vs. Vehicle ([2]; 13 h, 100 mg/kg): 31%

Structure (SMILES): C[C@@H]1CN(c2ccc(C#N)c3ncccc23)C[C@H](CNc2ccccn2)O1 [ER-886788]
% Suppression vs. Vehicle ([2]; 3 h, 33 mg/kg): 0%
% Suppression vs. Vehicle ([2]; 3 h, 100 mg/kg): 0%
% Suppression vs. Vehicle ([2]; 3 h, 300 mg/kg): 24%
% Suppression vs. Vehicle ([2]; 6 h, 33 mg/kg): 0%
% Suppression vs. Vehicle ([2]; 6 h, 100 mg/kg): 27%
% Suppression vs. Vehicle ([2]; 6 h, 300 mg/kg): 26%
% Suppression vs. Vehicle ([2]; 19 h, 33 mg/kg): 0%
% Suppression vs. Vehicle ([2]; 19 h, 100 mg/kg): 17%
% Suppression vs. Vehicle ([2]; 19 h, 300 mg/kg): 2%

Source: USRE47193E1, “Selectively substituted quinoline compounds” (EISAI R&D MANAGEMENT CO., LTD., priority 2013, dated 2019)
